From article PMC3353862
In brackets after ≈: the same amount, converted by molar mass.

Tests used:
S. pneumoniae = experiment: Broth microdilution MIC testing; assay type: cell-based, Streptococcus pneumoniae; conditions: for MIC S. pneumo: S. pneumoniae
M. catarrhalis = experiment: Broth microdilution MIC testing; assay type: cell-based, Moraxella catarrhalis
panel of bacteria = experiment: Antibacterial activity against the panel of bacteria (MIC, overall); assay type: cell-based; conditions: for antibacterial activity: panel of bacteria; for MIC (antibacterial activity grade): Table 2; on MIC (antibacterial activity grade): key: +: poor; ++: moderate; +++: good antibacterial activity
S. aureus = experiment: Broth microdilution MIC testing; assay type: cell-based, Staphylococcus aureus
[1] = test system: bacterial protein synthesis (aminoacylation/translation system); experiment: aminoacylation/translation (A/T) assay; assay type: biochemical; conditions: for IC50: A/T assay, Table 1, read-out: IC50; for fold improvement in the IC50: relative to the original two compounds
H. influenzae = experiment: Broth microdilution MIC testing; assay type: cell-based, Haemophilus influenzae; conditions: for MIC H. flu: H. influenzae
E. coli tolC mutants = experiment: Broth microdilution MIC testing; assay type: cell-based, Escherichia coli; conditions: for MIC E. coli tolC: E. coli tolC mutants
[2] = test system: E. coli modified with PMBN; experiment: Broth microdilution MIC testing; assay type: cell-based, Escherichia coli; conditions: for MIC E. coli +PMBP: E. coli modified with PMBN
E. faecalis = experiment: Broth microdilution MIC testing; assay type: cell-based, Enterococcus faecalis; conditions: for MIC E. fae: E. faecalis

| Compound | MIC (S. pneumoniae; Streptococcus pneumoniae, read-out: MIC S. pneumo) [µg/mL] | MIC (M. catarrhalis; Moraxella catarrhalis) [µg/mL] | antibacterial activity (panel of bacteria) | MIC (S. aureus; Staphylococcus aureus, read-out: MIC S. aureus) [µg/mL] | IC50 [1] [nM] | MIC (H. influenzae; Haemophilus influenzae, read-out: MIC H. flu) [µg/mL] | MIC (E. coli tolC mutants; Escherichia coli, read-out: MIC E. coli tolC) [µg/mL] | MIC ([2]; Escherichia coli, read-out: MIC E. coli +PMBP) [µg/mL] | MIC (E. faecalis; Enterococcus faecalis, read-out: MIC E. fae) [µg/mL] | MIC S. pneumo (S. pneumoniae) [µg/mL] | MIC M. cat (M. catarrhalis) [µg/mL] | MIC S. aureus (S. aureus) [µg/mL] | MIC H. flu (H. influenzae) [µg/mL] | MIC E. coli tolC (E. coli tolC mutants) [µg/mL] | MIC E. coli +PMBP [2] [µg/mL] | MIC E. fae (E. faecalis) [µg/mL] | fold improvement in the IC50 [1] | MIC (antibacterial activity grade) (panel of bacteria) | biochemical activity in the A/T assay [1] |
| --- | --- | --- | --- | --- | --- | --- | --- | --- | --- | --- | --- | --- | --- | --- | --- | --- | --- | --- | --- |
| Oc1cccc(CN2CCc3nc(-c4ccccn4)nc(O)c3C2)c1 [Compound 321526] | > 128 | 64 (≈ 191 µM) | little or no anti-bacterial activity | > 128 | 3500 | > 128 | > 128 | > 128 | > 128 | – | – | – | – | – | – | – | – | – | – |
| CCN(CC)Cc1cc(CN2CCc3nc(-c4ccccn4)[nH]c(=O)c3C2)ccc1OC [Compound 323193] | – | – | all antibacterial activity was lost | – | 4100 | – | – | – | – | > 128 | > 128 | > 128 | > 128 | > 128 | > 128 | > 128 | – | – | – |
| COc1cc(CN2CCc3nc(-c4ccccn4)[nH]c(=O)c3C2)ccc1OCC(N)=O [Compound 323200] | – | – | MIC was above maximum testing concentrations for the entire panel of bacteria | – | 400 | – | – | – | – | > 128 | > 128 | > 128 | > 128 | > 128 | > 128 | > 128 | three to sevenfold | – | – |
| CN(C)Cc1ccc(CN2CCc3nc(-c4ccccn4)[nH]c(=O)c3C2)cc1 [Compound 323201] | – | – | all antibacterial activity was lost | – | 2100 | – | – | – | – | > 128 | > 128 | > 128 | > 128 | > 128 | > 128 | > 128 | – | – | – |
| CN(C)c1ccc(CN2CCc3nc(-c4ccccn4)[nH]c(=O)c3C2)cc1 [Compound 323218] | – | – | – | – | 240 | – | – | – | – | 32 (≈ 88.5 µM) | 4 (≈ 11.1 µM) | > 128 | 16 (≈ 44.3 µM) | 128 (≈ 354 µM) | 64 (≈ 177 µM) | > 128 | five and tenfold | + | – |
| COc1cc(CN2CCc3nc(-c4ccccn4)[nH]c(=O)c3C2)cc(OC)c1OC [Compound 323221] | – | – | abolished both biochemical and microbiological activities | – | > 300000 | – | – | – | – | > 128 | > 128 | > 128 | > 128 | > 128 | > 128 | > 128 | – | – | abolished both biochemical and microbiological activities |
| O=c1[nH]c(-c2ccccn2)nc2c1CN(Cc1cc3c(cc1Cl)OCO3)CC2 [Compound 323227] | – | – | – | – | 370 | – | – | – | – | 64 (≈ 161 µM) | 8 (≈ 20.2 µM) | > 128 | 32 (≈ 80.6 µM) | 64 (≈ 161 µM) | > 128 | > 128 | three to sevenfold | + | – |
| O=c1[nH]c(-c2ccccn2)nc2c1CN(Cc1cc(F)ccc1F)CC2 [Compound 323228] | – | – | – | – | 300 | – | – | – | – | 8 (≈ 22.6 µM) | 0.5 (≈ 1.41 µM) | – | 4 (≈ 11.3 µM) | 16 (≈ 45.2 µM) | 16 (≈ 45.2 µM) | 64 (≈ 181 µM) | – | ++ | – |
| CC(C)Oc1cccc(CN2CCc3nc(-c4ccccn4)[nH]c(=O)c3C2)c1 [Compound 323229] | – | – | – | – | 530 | – | – | – | – | 8 (≈ 21.3 µM) | 0.5 (≈ 1.33 µM) | 64 (≈ 170 µM) | 8 (≈ 21.3 µM) | 16 (≈ 42.5 µM) | 16 (≈ 42.5 µM) | 64 (≈ 170 µM) | – | ++ | – |
| CN(CCO)c1ccc(CN2CCc3nc(-c4ccccn4)[nH]c(=O)c3C2)cc1 [Compound 323232] | – | – | – | – | 3200 | – | – | – | – | > 128 | 8 (≈ 20.4 µM) | > 128 | > 128 | 128 (≈ 327 µM) | > 128 | > 128 | – | – | – |
| COc1cc2c(cc1CN1CCc3nc(-c4ccccn4)[nH]c(=O)c3C1)OCO2 [Compound 323233] | – | – | – | – | > 300000 | – | – | – | – | 32 (≈ 81.5 µM) | 4 (≈ 10.2 µM) | > 128 | 16 (≈ 40.8 µM) | 64 (≈ 163 µM) | 64 (≈ 163 µM) | 128 (≈ 326 µM) | – | – | – |
| COc1ccc(CN2CCc3nc(-c4ccccn4)[nH]c(=O)c3C2)cc1Cn1cccn1 [Compound 323234] | – | – | – | – | 5800 | – | – | – | – | 128 (≈ 299 µM) | 16 (≈ 37.3 µM) | > 128 | 128 (≈ 299 µM) | > 128 | 64 (≈ 149 µM) | 128 (≈ 299 µM) | – | – | – |
